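Step 1: Grow cells in 96-well plates. Step 2: Expose to compound for 48 hours at 5 concentrations. Step 3: Interpolate endpoints linearly; if unreached, use highest concentration. GI50: concentration for 50% inhibition of growth. TGI: total growth inhibition.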
What was measured:
Test in all cases: NCI anticancer screen, dose series, 48 h
[1] = tested on: SNB-19 CNS
[2] = tested on: U251 CNS
[3] = tested on: CAKI-1 renal
[4] = tested on: A549 NSCLC
[5] = tested on: COLO 205 colon
[6] = tested on: SF-295 CNS
[7] = tested on: SK-MEL-2 melanoma
[8] = tested on: NCI/ADR-RES ovarian
[9] = tested on: NCI-H522 lung
[10] = tested on: MDA-MB-231 breast
[11] = tested on: SK-MEL-5 melanoma
[12] = tested on: LOX IMVI melanoma
[13] = tested on: T-47D breast
[14] = tested on: NCI-H460 lung
[15] = tested on: SNB-75 CNS
[16] = tested on: SF-268 CNS
[17] = tested on: UACC-257 melanoma
[18] = tested on: MDA-MB-435
[19] = tested on: UO-31 renal
[20] = tested on: UACC-62 melanoma
[21] = tested on: HOP-62 NSCLC
[22] = tested on: NCI-H23 lung
[23] = tested on: RPMI-8226 leukemia
[24] = tested on: OVCAR-3 ovarian
[25] = tested on: HT29 colon
[26] = tested on: HS 578T breast
[27] = tested on: 786-0 renal
[28] = tested on: TK-10 renal
[29] = tested on: DU-145 prostate
[30] = tested on: SW-620 colon
[31] = tested on: NCI-H226 lung
[32] = tested on: SN12C renal
[33] = tested on: MCF7 breast
[34] = tested on: HCT-116 colon
[35] = tested on: M14 melanoma
[36] = tested on: OVCAR-5 ovarian
[37] = tested on: HCT-15 colon
[38] = tested on: EKVX NSCLC
[39] = tested on: IGROV1 ovarian
[40] = tested on: OVCAR-4 ovarian
[41] = tested on: CCRF-CEM leukemia
[42] = tested on: K-562 leukemia
[43] = tested on: KM12 colon
[44] = tested on: ACHN renal
[45] = tested on: PC-3 prostate
[46] = tested on: BT-549 breast
[47] = tested on: OVCAR-8 ovarian
[48] = tested on: SK-MEL-28 melanoma
[49] = tested on: SK-OV-3 ovarian

CC(=O)c1ccc(Nc2cc(-n3nnc4ccccc43)nc3ccccc23)cc1
GI50 [1]: 47.6 µM | TGI [1]: > 100 µM | GI50 [2]: 14.4 µM | TGI [2]: 44.1 µM | GI50 [3]: 13.2 µM | TGI [3]: 35.2 µM | GI50 [4]: 32.3 µM | TGI [4]: > 100 µM | GI50 [5]: 30.6 µM | TGI [5]: > 100 µM | GI50 [6]: 4.96 µM | TGI [6]: 13.6 µM | GI50 [7]: 27.6 µM | TGI [7]: > 100 µM | GI50 [8]: 12 µM | TGI [8]: 46 µM | GI50 [9]: 35.4 µM | TGI [9]: > 100 µM | GI50 [10]: 4.41 µM | TGI [10]: 35.7 µM | GI50 [11]: 26.6 µM | TGI [11]: 75.4 µM | GI50 [12]: 13.4 µM | TGI [12]: > 100 µM | GI50 [13]: 18.9 µM | TGI [13]: 87.1 µM | GI50 [14]: 29.1 µM | TGI [14]: > 100 µM | GI50 [15]: 19.6 µM | TGI [15]: 60.5 µM | GI50 [16]: 25.1 µM | TGI [16]: > 100 µM | GI50 [17]: 45 µM | TGI [17]: > 100 µM | GI50 [18]: 19.7 µM | TGI [18]: 94.6 µM | GI50 [19]: 23 µM | TGI [19]: > 100 µM | GI50 [20]: 14.5 µM | TGI [20]: 62.8 µM | GI50 [21]: 4.51 µM | TGI [21]: 18.2 µM | GI50 [22]: 15.8 µM | TGI [22]: 72.6 µM | GI50 [23]: 2.5 µM | TGI [23]: 14 µM | GI50 [24]: 14 µM | TGI [24]: 37.5 µM | GI50 [25]: 12.9 µM | TGI [25]: > 100 µM | GI50 [26]: 9.02 µM | TGI [26]: 28.8 µM | GI50 [27]: 11.9 µM | TGI [27]: 30.1 µM | GI50 [28]: 9.46 µM | TGI [28]: 24.3 µM | GI50 [29]: 14.6 µM | TGI [29]: 82 µM | GI50 [30]: > 100 µM | TGI [30]: > 100 µM | GI50 [31]: 14.8 µM | TGI [31]: 59.4 µM | GI50 [32]: 6.24 µM | TGI [32]: 35.4 µM | GI50 [33]: 36.3 µM | TGI [33]: > 100 µM | GI50 [34]: 32.9 µM | TGI [34]: > 100 µM | GI50 [35]: 10.9 µM | TGI [35]: 44.6 µM | GI50 [36]: 26.2 µM | TGI [36]: > 100 µM | GI50 [37]: > 100 µM | TGI [37]: > 100 µM | GI50 [38]: 9.41 µM | TGI [38]: 67.4 µM | GI50 [39]: 55.7 µM | TGI [39]: > 100 µM | GI50 [40]: 10.7 µM | TGI [40]: 61.9 µM | GI50 [41]: 5.18 µM | TGI [41]: > 100 µM | GI50 [42]: > 100 µM | TGI [42]: > 100 µM | GI50 [43]: 4.16 µM | TGI [43]: 25.6 µM | GI50 [44]: 13.2 µM | TGI [44]: 26.9 µM | GI50 [45]: 13.9 µM | TGI [45]: 72.4 µM | GI50 [46]: 16 µM | TGI [46]: 66.2 µM | GI50 [47]: 7.83 µM | TGI [47]: 43.4 µM | GI50 [48]: 15.5 µM | TGI [48]: > 100 µM | GI50 [49]: 20.5 µM | TGI [49]: 43.4 µM
